Experiments:
Integrin alpha-V/beta-3 = Integrin alpha-V/beta-3 (Homo sapiens, UniProt P05106+P06756); experiment: Inhibition of Vitronectin receptor (alpha V beta 3) binding to vitronectin
[1] = molecular target: Integrin alpha-IIb/beta-3 (Homo sapiens, UniProt P05106+P08514); experiment: Inhibition of alpha IIb beta-3 integrin binding to fibrinogen; format: protein-complex assay
Chain of Integrin alpha-IIb/beta-3 (P05106 27-788 limits assumed): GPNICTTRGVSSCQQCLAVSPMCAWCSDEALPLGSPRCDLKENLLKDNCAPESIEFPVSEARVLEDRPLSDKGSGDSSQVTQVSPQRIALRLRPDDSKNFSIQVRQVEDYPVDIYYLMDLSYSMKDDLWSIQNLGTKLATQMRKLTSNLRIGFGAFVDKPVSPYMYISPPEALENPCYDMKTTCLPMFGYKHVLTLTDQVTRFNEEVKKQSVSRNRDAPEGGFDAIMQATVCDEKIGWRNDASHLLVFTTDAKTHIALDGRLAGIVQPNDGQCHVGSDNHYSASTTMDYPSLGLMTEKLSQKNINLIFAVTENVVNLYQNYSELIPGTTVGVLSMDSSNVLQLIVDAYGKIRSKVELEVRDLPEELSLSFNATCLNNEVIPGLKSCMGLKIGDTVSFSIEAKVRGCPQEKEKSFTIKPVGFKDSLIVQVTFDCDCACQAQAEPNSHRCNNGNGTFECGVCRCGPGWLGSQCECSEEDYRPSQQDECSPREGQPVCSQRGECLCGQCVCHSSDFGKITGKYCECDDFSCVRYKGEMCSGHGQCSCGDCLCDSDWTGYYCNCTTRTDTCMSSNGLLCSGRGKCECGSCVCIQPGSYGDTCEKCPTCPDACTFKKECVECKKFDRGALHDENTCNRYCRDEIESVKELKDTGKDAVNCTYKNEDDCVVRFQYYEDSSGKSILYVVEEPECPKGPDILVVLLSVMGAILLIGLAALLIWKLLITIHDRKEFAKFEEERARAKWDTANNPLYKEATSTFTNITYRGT
Chain of Integrin alpha-IIb/beta-3 (P08514 32-887 limits assumed): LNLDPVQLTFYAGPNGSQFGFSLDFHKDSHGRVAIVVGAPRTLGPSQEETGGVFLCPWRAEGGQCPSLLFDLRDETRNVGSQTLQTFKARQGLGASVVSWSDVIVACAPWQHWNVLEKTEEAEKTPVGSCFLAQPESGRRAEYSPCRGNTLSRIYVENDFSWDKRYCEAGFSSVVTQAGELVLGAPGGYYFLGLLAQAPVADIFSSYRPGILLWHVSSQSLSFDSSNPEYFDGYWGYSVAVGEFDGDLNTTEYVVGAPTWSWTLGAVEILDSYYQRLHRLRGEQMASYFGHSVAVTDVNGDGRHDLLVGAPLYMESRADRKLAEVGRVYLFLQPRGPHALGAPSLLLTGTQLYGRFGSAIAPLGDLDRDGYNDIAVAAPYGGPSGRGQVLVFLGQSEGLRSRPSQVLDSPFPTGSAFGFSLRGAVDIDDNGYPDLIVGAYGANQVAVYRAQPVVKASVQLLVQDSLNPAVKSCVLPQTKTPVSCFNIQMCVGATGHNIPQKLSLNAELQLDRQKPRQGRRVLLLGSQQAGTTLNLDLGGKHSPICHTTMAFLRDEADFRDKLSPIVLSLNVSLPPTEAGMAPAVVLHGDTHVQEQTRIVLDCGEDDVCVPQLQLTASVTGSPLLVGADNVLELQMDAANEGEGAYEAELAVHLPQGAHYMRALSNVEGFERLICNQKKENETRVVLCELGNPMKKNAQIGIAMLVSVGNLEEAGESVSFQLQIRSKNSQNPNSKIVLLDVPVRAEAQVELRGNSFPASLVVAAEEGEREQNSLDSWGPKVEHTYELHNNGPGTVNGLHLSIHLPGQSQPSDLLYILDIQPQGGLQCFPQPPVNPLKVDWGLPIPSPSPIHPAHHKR
Chain of Integrin alpha-IIb/beta-3 (P08514 891-1039 limits assumed): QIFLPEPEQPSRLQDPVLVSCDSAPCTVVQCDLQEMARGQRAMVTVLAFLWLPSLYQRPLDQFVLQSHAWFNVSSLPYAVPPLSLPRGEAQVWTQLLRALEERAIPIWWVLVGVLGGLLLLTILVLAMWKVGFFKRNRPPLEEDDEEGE

Chain of Integrin alpha-V/beta-3 (P05106 27-788 limits assumed): as the sequence (P05106 27-788 limits assumed) above
Chain of Integrin alpha-V/beta-3 (P06756 31-889 limits assumed): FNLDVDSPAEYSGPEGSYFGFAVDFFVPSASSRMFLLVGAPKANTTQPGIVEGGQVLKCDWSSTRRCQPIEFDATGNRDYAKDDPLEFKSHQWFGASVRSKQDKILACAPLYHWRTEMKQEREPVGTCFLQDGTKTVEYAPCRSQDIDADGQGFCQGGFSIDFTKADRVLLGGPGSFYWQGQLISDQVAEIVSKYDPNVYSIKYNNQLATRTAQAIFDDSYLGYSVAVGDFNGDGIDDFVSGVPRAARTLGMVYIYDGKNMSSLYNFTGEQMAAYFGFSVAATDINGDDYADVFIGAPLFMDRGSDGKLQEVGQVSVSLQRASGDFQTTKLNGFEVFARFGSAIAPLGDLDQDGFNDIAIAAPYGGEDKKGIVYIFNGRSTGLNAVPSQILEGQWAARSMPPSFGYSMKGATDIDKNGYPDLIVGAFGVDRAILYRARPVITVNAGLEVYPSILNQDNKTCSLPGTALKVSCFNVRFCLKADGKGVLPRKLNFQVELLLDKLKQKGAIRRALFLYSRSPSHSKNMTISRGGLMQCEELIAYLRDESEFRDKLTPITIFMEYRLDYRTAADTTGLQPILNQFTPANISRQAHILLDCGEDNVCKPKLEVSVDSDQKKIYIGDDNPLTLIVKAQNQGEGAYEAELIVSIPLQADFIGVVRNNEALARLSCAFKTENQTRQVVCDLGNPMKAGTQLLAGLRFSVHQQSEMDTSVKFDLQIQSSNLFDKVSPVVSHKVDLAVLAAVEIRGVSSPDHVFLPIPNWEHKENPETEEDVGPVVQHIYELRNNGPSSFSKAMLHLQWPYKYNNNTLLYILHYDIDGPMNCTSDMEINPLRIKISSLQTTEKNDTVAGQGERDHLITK
Chain of Integrin alpha-V/beta-3 (P06756 891-1048 limits assumed): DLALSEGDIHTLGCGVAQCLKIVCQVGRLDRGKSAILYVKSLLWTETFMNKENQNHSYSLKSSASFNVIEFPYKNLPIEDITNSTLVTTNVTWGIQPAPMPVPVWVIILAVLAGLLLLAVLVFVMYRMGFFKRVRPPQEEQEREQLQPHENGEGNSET

## NCCCC[C@H](NC(=O)[C@@H]1CCCN1C(=O)[C@H](CO)NC(=O)[C@H](CC(=O)O)NC(=O)CNC(=O)[C@H](CCCN=C(N)N)NC(=O)CN)C(=O)O
Integrin alpha-V/beta-3
  IC50: 210 nM
[1]
  IC50: 1700 nM

Reference: ChEMBL document CHEMBL1132654 (J Med Chem, 1999)
